According to PMC6063804 (EJNMMI Research, 2018):
Like-named read-outs stand apart in the source and are kept apart here.

Columns and labels:
PCP binding site = conditions: cited from earlier work
[1] = Plasma ketamine concentration during PET; assay type: in vivo, human
Excerpt: The final arterial plasma input function was derived using both continuous and discrete arterial blood data. The input function was corrected for plasma to whole blood ratio, metabolites, and time delay. For each scan, two additional plasma input functions were generated to investigate the effect of within-subject and between-subject variability in plasma data. For the within-subject averaged input function, the mean of PET1 and PET2 [^18F]PK-209 parent fractions per subject were used at each of the eight sample timepoints for both scans. For the population-averaged input function, the mean parent fractions for all five subjects in the TRT and ketamine groups (i.e., 10 scans) were taken at each timepoint. The manual arterial blood samples were also used for assessment of the plasma ketamine concentration. The area under the ketamine concentration–time curve was estimated by means of the trapezoidal rule.
(§1) The (S+)-isomer of ketamine (0.5 mg · kg^−1) was dissolved in NaCl 50 mL and administered intravenously in a pseudo-steady state model with a sub-acute loading dose. First, ketamine was administered for 40 min at a rate of 0.006 mg · kg^−1 · min^−1 followed by a 130 min equilibrium phase at 0.002 mg · kg^−1 · min^−1. [^18F]PK-209 injection and start of PET were performed at 10 min into the equilibrium phase, following 0.26 mg · kg^−1 administration in the preceding 50 min.

[2] = design: method as in PMID 18176855; conditions: 1.1 mg ∙ kg^−1 S-ketamine over 75 min; cited from earlier work
[3] = Tolerability of ketamine infusion; assay type: in vivo, human
Procedure: as §1

ion channel site = test system: ion channel site; design: method as in PMID 26325093; conditions: displacement binding studies; cited from earlier work
NMDA-R ion channel site = test system: NMDA-R ion channel site; design: method as in PMID 26325093; conditions: rats, 3 mg ∙ kg^−1 IV, cited from earlier work
ion channel of NMDA-R = target: ion channel of NMDA-R; design: method as in PMID 25648682; conditions: unlabelled compounds; rat forebrain membranes; read-out: concentrations that inhibit specific binding of [^3H]MK-801; cited from earlier work
NMDA-R = test system: NMDA-R; design: method as in PMID 26661185; conditions: humans; intravenous ketamine 0.3 mg · kg^−1; on average; cited from earlier work

CSc1cccc(N(C)C(N)=Nc2cc(SCC[18F])ccc2Cl)c1 [[^18F]GE-179]
block of the PET signal by cold GE-179 (PCP binding site; GE-179 0.6 mg ∙ kg^−1 at steady state, bolus-plus-infusion, anesthetized non-human primates): did not significantly block the PET signal | specificity of the PET signal (PCP binding site; preclinical in vivo evaluation): largely non-specific

CNC1(c2ccccc2Cl)CCCCC1=O (stereo not drawn) [ketamine]
mean plasma ketamine concentration, plateau ([1]; between 20 and 60 min after the start of PET, 0.5 mg ∙ kg^−1 infusion): ~ 100 ng ∙ mL^−1 | mean plasma ketamine concentration ([1]; end of the scan, 160 min since the start of infusion): ~ 70 ng ∙ mL^−1 | mean plasma concentration [2]: 173 ng/mL | tolerability ([3]; S-ketamine 0.5 mg · kg^−1 intravenous infusion, healthy subjects): well tolerated by all subjects | feelings of dissociation ([3]; at the start of PET scanning): reported by all subjects

C[C@]12N[C@H](Cc3ccccc31)c1ccccc12 [MK-801]
potency relative to (±)ketamine at the ion channel site (ion channel site): two orders of magnitude more potent

CNC1(c2ccccc2Cl)CCCCC1=O (racemic) [(±)ketamine]
inhibition of [^3H]MK-801 binding (NMDA-R ion channel site; 1 min post-dosing): 67% | inhibition of [^3H]MK-801 binding (NMDA-R ion channel site; 20 min post-dose): 19%

COc1cccc(N(C)C(=N)Nc2cc(SC)ccc2Cl)c1 [GMOM, reference compound]
K i (ion channel of NMDA-R): 21.7 nM

COc1cccc(N(C)C(=N)Nc2cc(SC)ccc2Cl)c1 [[^11C]GMOM, [11C]N-(2-chloro-5-thiomethylphenyl)-N′-(3-methoxy-phenyl)-N′-methylguanidine]
reduction of radiotracer net influx rate (Ki) in whole brain gray matter (NMDA-R): 66%
